Data on 12 molecules can be found in ChEMBL document CHEMBL1138261, “Probing binding requirements of type I and type II isoforms of inosine monophosphate dehydrogenase with adenine-modified nicotinamide adenine dinucleotide analogues” (J Med Chem, 2007).

Bounds are passed on as bounds.

One experiment has as its system K562. Put plainly: Antiproliferative activity against human K562 cells after 72 hrs. The experiment is classed as functional, cell-based. The note with it: K562, 72 h.
Experiment [1] addresses L-lactate dehydrogenase (Bos taurus). As to the kind of experiment: Inhibition of bovine heart lactate dehydrogenase.
Experiment [2] concerns the target Inosine-5'-monophosphate dehydrogenase 2 (Homo sapiens, UniProt P12268). As to the kind of experiment: Inhibition of human IMPDH type 2.
Experiment [3] has as its target Malate dehydrogenase (Sus scrofa). As to the kind of experiment: Inhibition of porcine heart malate dehydrogenase.
Experiment [4] deals with Inosine-5'-monophosphate dehydrogenase 1 (Homo sapiens, UniProt P20839). Put plainly: Inhibition of human IMPDH type 1.
Experiment [5] can be described thus: Inhibition of horse liver alcohol dehydrogenase. Details: species or system Equus caballus.

Inosine-5'-monophosphate dehydrogenase 1, sequence (P20839 whole entry): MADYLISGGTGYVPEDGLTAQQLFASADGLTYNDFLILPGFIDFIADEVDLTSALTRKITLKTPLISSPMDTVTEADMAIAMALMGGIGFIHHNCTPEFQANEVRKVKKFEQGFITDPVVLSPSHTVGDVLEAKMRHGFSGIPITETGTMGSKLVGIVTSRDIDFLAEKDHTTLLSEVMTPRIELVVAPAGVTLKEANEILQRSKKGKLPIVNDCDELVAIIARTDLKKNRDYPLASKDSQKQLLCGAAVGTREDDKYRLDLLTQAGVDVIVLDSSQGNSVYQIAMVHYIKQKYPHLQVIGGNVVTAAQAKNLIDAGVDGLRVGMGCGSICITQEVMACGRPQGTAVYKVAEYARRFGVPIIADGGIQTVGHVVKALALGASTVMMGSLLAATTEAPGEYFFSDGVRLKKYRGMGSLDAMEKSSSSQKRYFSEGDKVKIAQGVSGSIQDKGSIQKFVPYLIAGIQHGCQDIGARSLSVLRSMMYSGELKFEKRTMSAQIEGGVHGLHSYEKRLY

In general, IC50 refers to the midpoint of a concentration-inhibition curve. Higher therefore signals weaker potency in that assay. Regarding `NC(=O)c1csc([C@@H]2O[C@H](COP(=O)(O)OP(=O)(O)OC[C@H]3O[C@@H](n4cnc5c(N)ncnc54)[C@H](O)[C@@H]3O)[C@@H](O)[C@H]2O)n1` [TIAZOFURIN ADENINE DINUCLEOTIDE], in the experiment on K562, the IC50 is 12400 nM.
As a reminder, the Ki is the dissociation constant of the complex between target and ligand, obtained from inhibition or displacement. Lower therefore signals higher affinity. For the molecule `NC(=O)c1csc([C@@H]2O[C@H](COP(=O)(O)OP(=O)(O)OC[C@H]3O[C@@H](n4cnc5c(N)nc(I)nc54)[C@H](O)[C@@H]3O)[C@@H](O)[C@H]2O)n1`, the IC50 in experiment [1] and in experiment [3] was more than 50000 nM each time. In addition, the Ki worked out at 84 nM in experiment [2] and 19 nM in experiment [4].
As to `C=Cc1nc(N)c2ncn([C@@H]3O[C@H](COP(=O)(O)OP(=O)(O)OC[C@H]4O[C@@H](c5nc(C(N)=O)cs5)[C@H](O)[C@@H]4O)[C@@H](O)[C@H]3O)c2n1`, the values for the IC50 in experiment [1], in experiment [5] and in experiment [3] were more than 50000 nM, 39000 nM and more than 50000 nM, respectively. Besides, the figures for the Ki in experiment [2] and in experiment [4] were 94 nM and 96 nM, respectively.
On to `COc1c(C)c2c(c(O)c1CCOP(=O)(O)CP(=O)(O)OC[C@H]1O[C@@H](n3cnc4c(N)nc(-c5ccccc5)nc43)[C@H](O)[C@@H]1O)C(=O)OC2`, for which the IC50 is more than 50000 nM in experiment [1], more than 50000 nM in experiment [5], 14300 nM in experiment [3] and 1100 nM with K562. Further, the Ki was found to be 108 nM in experiment [2] and 66 nM in experiment [4].
Take `CCc1nc(N)c2ncn([C@@H]3O[C@H](COP(=O)(O)OP(=O)(O)OC[C@H]4O[C@@H](c5nc(C(N)=O)cs5)[C@H](O)[C@@H]4O)[C@@H](O)[C@H]3O)c2n1`: the IC50 in experiment [1], in experiment [5] and in experiment [3] was more than 50000 nM each time. Moreover, the affinity in experiment [4], expressed as Ki, was 1 nM.
In the case of `NC(=O)c1csc([C@@H]2O[C@H](COP(=O)(O)OP(=O)(O)OC[C@H]3O[C@@H](n4cnc5c(N)nc(NCCc6ccccc6)nc54)[C@H](O)[C@@H]3O)[C@@H](O)[C@H]2O)n1`, the IC50 in experiment [1] was more than 50000 nM; in experiment [3], 12700 nM. Also, the Ki in experiment [2] is 255 nM; in experiment [4], 73 nM.
On to `NC(=O)c1csc([C@@H]2O[C@H](COP(=O)(O)OP(=O)(O)OC[C@H]3O[C@@H](n4cnc5c(N)nc(Nc6ccccc6)nc54)[C@H](O)[C@@H]3O)[C@@H](O)[C@H]2O)n1`, for which the IC50 in experiment [1], in experiment [5] and in experiment [3] was more than 50000 nM in each case. Besides, the Ki in experiment [2] was 153 nM; in experiment [4], 45 nM.
As to `NC(=O)c1csc([C@@H]2O[C@H](COP(=O)(O)OP(=O)(O)OC[C@H]3O[C@@H](n4cnc5c(N)nc(NCc6ccccc6)nc54)[C@H](O)[C@@H]3O)[C@@H](O)[C@H]2O)n1`, the IC50 in experiment [1] was more than 50000 nM; in experiment [3], 30000 nM. The results for the Ki in experiment [2] and in experiment [4] were 169 nM and 45 nM, respectively.
With `NC(=O)c1csc([C@@H]2O[C@H](COP(=O)(O)OP(=O)(O)OC[C@H]3O[C@@H](n4cnc5c(N)nc(-c6ccccc6)nc54)[C@H](O)[C@@H]3O)[C@@H](O)[C@H]2O)n1`, the IC50 in experiment [1] and in experiment [3] was more than 50000 nM in each case. Besides, the Ki in experiment [2] turned out to be 143 nM; in experiment [4] it was 20 nM.
Take `NC(=O)c1csc([C@@H]2O[C@H](COP(=O)(O)OP(=O)(O)OC[C@H]3O[C@@H](n4cnc5c(N)nc(N)nc54)[C@H](O)[C@@H]3O)[C@@H](O)[C@H]2O)n1`: the IC50 in experiment [1], in experiment [5] and in experiment [3] was more than 50000 nM in each case. The molecule also came in with a Ki in experiment [4] of 7 nM.
The molecule `COc1c(C)c2c(c(O)c1C/C=C(\C)CCC(=O)O)C(=O)OC2` [MYCOPHENOLIC ACID] yielded an IC50 with K562 of 7700 nM.
As to `C#Cc1nc(N)c2ncn([C@@H]3O[C@H](COP(=O)(O)OP(=O)(O)OC[C@H]4O[C@@H](c5nc(C(N)=O)cs5)[C@H](O)[C@@H]4O)[C@@H](O)[C@H]3O)c2n1`, the IC50 in experiment [1], in experiment [5] and in experiment [3] was more than 50000 nM throughout. In addition, the values for the Ki in experiment [2] and in experiment [4] were 49 nM and 10 nM, respectively.
